Key:
human D2R/β-arrestin [1] = molecular target: T1, human D2R/β-arrestin (Homo sapiens (Human), UniProt P14416); assay: β-arrestin agonist assay (PathHunter); format: cell-based; settings: CHO-K1 cells expressing human D2R/β-arrestin; agonist mode
Method: The detection reagent (9.6 μL, Buffer:Emerald II:Galactor-Star in a 19:5:1 ratio, i.e., 14.06 mL:3.7 mL:0.74 mL=18.5 mL) was then added to the agonist plates.

human D2R/β-arrestin [2] = molecular target: T1, human D2R/β-arrestin; assay: Gi/cAMP agonist assay (Lance Ultra cAMP, forskolin); format: cell-based; settings: CHO-K1 cells expressing human D2R/β-arrestin; agonist mode, 2.5 μM forskolin
Method: Eu-cAMP tracer solution (10 μl, PerkinElmer, 360 μl of Tracer in 17.64 ml kit buffer) and ULight-anti-cAMP solution (10 μl, 120 μL antibody in 17.88 ml kit buffer) was then added to each well.

human D2R/β-arrestin [3] = molecular target: T1, human D2R/β-arrestin; assay: cell-based; settings: β-arrestin Antagonist, CHO-K1 cells expressing human D2R/β-arrestin; antagonist mode, quinpirole 130 nM
human D2R/β-arrestin [4] = molecular target: T1, human D2R/β-arrestin; assay: cell-based; settings: cAMP Antagonist, CHO-K1 cells expressing human D2R/β-arrestin; antagonist mode, 2.5 μM forskolin and 2.7 nM quinpirole

T1 sequence (P14416 whole entry): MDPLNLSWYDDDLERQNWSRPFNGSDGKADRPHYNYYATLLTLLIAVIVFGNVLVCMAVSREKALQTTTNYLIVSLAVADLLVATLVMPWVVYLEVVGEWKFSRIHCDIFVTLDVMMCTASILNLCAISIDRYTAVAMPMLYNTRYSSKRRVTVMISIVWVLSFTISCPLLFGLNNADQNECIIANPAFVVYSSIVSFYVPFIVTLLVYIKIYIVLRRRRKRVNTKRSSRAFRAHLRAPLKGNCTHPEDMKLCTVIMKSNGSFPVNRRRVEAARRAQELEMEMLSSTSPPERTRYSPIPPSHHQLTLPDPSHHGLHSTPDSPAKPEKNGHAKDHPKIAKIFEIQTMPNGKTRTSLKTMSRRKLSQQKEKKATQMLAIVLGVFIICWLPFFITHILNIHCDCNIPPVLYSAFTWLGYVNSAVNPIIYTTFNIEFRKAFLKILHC

Compound	EC50 (human D2R/β-arrestin [1]) [µM]	EC50 (human D2R/β-arrestin [2]) [µM]	IC50 (human D2R/β-arrestin [3]) [µM]	IC50 (human D2R/β-arrestin [4]) [µM]
CC1(Oc2ccccc2)CCN(CCOc2ccccc2)C1 (centres unmarked) [Compound 39, 3-methyl-3-phenoxy-1-(2-phenoxyethyl)pyrrolidine]	> 30	< 0.1	0.1 to 1	> 30
CC1(Oc2ccccc2)CCN(CCOc2ccccn2)CC1 [Compound 174, 2-(2-(4-methyl-4-phenoxypiperidin-1-yl)ethoxy)pyridine]	0.1 to 1	< 0.1	> 30	> 30
CC1(Oc2ccc(Cl)cc2)CCN(CCCc2ccccc2)C1 (centres unmarked) [Compound 26, 3-(4-chlorophenoxy)-3-methyl-1-(3-phenylpropyl)pyrrolidine]	> 30	> 30	1 to 10	0.1 to 1
CC1(Oc2ccc(Cl)cc2)CCN(CCOc2cccnc2)C1 (centres unmarked) [Compound 12, 3-(2-(3-(4-chlorophenoxy)-3-methylpyrrolidin-1-yl)ethoxy)pyridine]	< 0.1	< 0.1	> 30	> 30
CC1(Oc2ccc(Cl)cc2)CCN(CCOC2CCCCC2)C1 (centres unmarked) [Compound 21, 3-(4-chlorophenoxy)-1-(2-(cyclohexyloxy)ethyl)-3-methylpyrrolidine]	> 30	> 30	1 to 10	1 to 10
CC1(Oc2ccc(Cl)cc2)CCN(CCOc2cccnc2C(F)(F)F)CC1 [Compound 163, 3-(2-(4-(4-chlorophenoxy)-4-methylpiperidin-1-yl)ethoxy)-2-(trifluoromethyl)pyridine]	1 to 10	< 0.1	> 30	> 30

Further lines, results first:

EC50 (human D2R/β-arrestin [1]) [µM]	EC50 (human D2R/β-arrestin [2]) [µM]	IC50 (human D2R/β-arrestin [3]) [µM]	IC50 (human D2R/β-arrestin [4]) [µM]	Compound
> 30	1 to 10	1 to 10	1 to 10	OCC1(Cc2ccc(Cl)cc2)CCN(CCOc2ccccc2C(F)(F)F)CC1 [Compound 214, (4-(4-chlorobenzyl)-1-(2-(2-(trifluoromethyl)phenoxy)ethyl)piperidin-4-yl)methanol]
> 30	< 0.1	0.1 to 1	> 30	CC1(Oc2ccccc2)CCN(CCOc2cc(F)ccc2C(F)(F)F)CC1 [Example 76, 1-(2-(5-fluoro-2-(trifluoromethyl)phenoxy)ethyl)-4-methyl-4-phenoxypiperidine]
> 30	< 0.1	1 to 10	> 30	CC1(Oc2cccc(F)c2)CCN(CCOc2ccccc2)C1 (centres unmarked) [Example 52, 3-(3-fluorophenoxy)-3-methyl-1-(2-phenoxyethyl)pyrrolidine]
1 to 10	0.1 to 1	1 to 10	> 30	CC1(Oc2ccc(Cl)cc2)CCN(CCOc2ccncc2)CC1 [Compound 183, 4-(2-(4-(4-chlorophenoxy)-4-methylpiperidin-1-yl)ethoxy)pyridine]
> 30	10 to 30	0.1 to 1	1 to 10	CC1(Oc2ccccc2Cl)CCN(CCOc2ccccc2C(F)(F)F)CC1 [Example 104, 4-(2-Chlorophenoxy)-4-methyl-1-(2-(2-(trifluoromethyl)phenoxy)ethyl) piperidine]
0.1 to 1	< 0.1	1 to 10	> 30	C#CC1(Oc2ccccc2)CCN(CCOc2ccccc2C(F)(F)F)CC1 [Compound 194, 4-ethynyl-4-phenoxy-1-(2-(2-(trifluoromethyl)phenoxy)ethyl)piperidine]
> 30	> 30	0.1 to 1	0.1 to 1	CC1(Oc2ccccc2)CCN(CCOc2ccc(F)cc2C(F)(F)F)CC1 [Example 75, 1-(2-(4-Fluoro-2-(trifluoromethyl)phenoxy)ethyl)-4-methyl-4-phenoxy piperidine]
> 30	< 0.1	0.1 to 1	0.1 to 1	CNC(=O)C1(C)CCN(CC2COc3ccccc3O2)CC1 (centres unmarked) [Compound 202, 1-((2,3-dihydrobenzo[b][1,4]dioxin-2-yl)methyl)-N,4-dimethylpiperidine-4-carboxamide]
